Experimental data reported in patent US20250129044A1 (priority 2021, published 2025).

target: sodium channel isoforms (Homo sapiens, UniProt P35498); type: cell-based; settings: area under the sodium current trace, step from −120 mV to 0 mV, HEK cells
Method: The sodium channel isoforms of interest are stably expressed in Human Embryonic Kidney Cells and the currents that flow through those channels in response to a depolarizing voltage clamp step from −120 mV to 0 mV are measured in the presence of increasing concentrations of the chemical agents. The area under the sodium current trace which correlates to the magnitude of sodium flux through the cell membrane is used to quantify the effects on gating of the channels. Other parameters that are measured in the assay include the peak current, time constant of open state inactivation and the voltage dependence of steady state inactivation properties. The concentration responses are used to determine potency of each chemical agents effects on modulating the sodium channel isoform gating. Such techniques are known to those skilled in the art, and may be developed, using current technologies, into low or medium throughput assays for evaluating compounds for their ability to modulate sodium channel behaviour.

How did the EC50 turn out when CN1C[C@H]2CC[C@@H](C1)N2c1ncc(C(=O)Nc2c(-c3cc(F)ccc3F)ccnc2C2CCC(F)(F)CC2)cn1 [Example 160, N-(2-(4,4-difluorocyclohexyl)-4-(2,5-difluorophenyl)pyridin-3-yl)-2-((1R,5S)-3-methyl-3,8-diazabicyclo[3.2.1]octan-8-yl)pyrimidine-5-carboxamide] was run?
Its EC50 is < 1000 nM.

O=C(Nc1c(-c2cc(F)ccc2F)ccnc1C1CCC(F)(F)CC1)c1cnc(N2C3CCCC2CC3)nc1 [Example 165, 2-(8-azabicyclo[3.2.1]octan-8-yl)-N-(2-(4,4-difluorocyclohexyl)-4-(2,5-difluorophenyl)pyridin-3-yl)pyrimidine-5-carboxamide] was tested. Which EC50 did it give?
Its EC50 is < 1000 nM.

Which EC50 does the source give for O=C(Nc1c(-c2cc(F)ccc2F)ccnc1C1CCC(F)(F)CC1)c1cnc(N2CC3CC(C3)C2)nc1 [Example 166, 2-(3-azabicyclo[3.1.1]heptan-3-yl)-N-(2-(4,4-difluorocyclohexyl)-4-(2,5-difluorophenyl)pyridin-3-yl)pyrimidine-5-carboxamide] here?
The EC50 was < 1000 nM.

With O=C(Nc1c(-c2cc(F)ccc2F)ccnc1C1CCC(F)(F)CC1)c1cnc(N2CC3CC(C2)O3)nc1 [Example 167, 2-(6-oxa-3-azabicyclo[3.1.1]heptan-3-yl)-N-(2-(4,4-difluorocyclohexyl)-4-(2,5-difluorophenyl)pyridin-3-yl)pyrimidine-5-carboxamide] as the molecule, how does the EC50 read?
Its EC50 is < 1000 nM.

How did the EC50 turn out when O=C(Nc1c(-c2cc(F)ccc2F)ccnc1C1CCC(F)(F)CC1)c1cnc(N2C3CCC2CC3)nc1 [Example 177, 2-(7-azabicyclo[2.2.1]heptan-7-yl)-N-(2-(4,4-difluorocyclohexyl)-4-(2,5-difluorophenyl)pyridin-3-yl)pyrimidine-5-carboxamide] was run?
The EC50 was < 1000 nM.
